Read-outs that look alike come from different tables or passages of the source.
Biological target: T1, mouse TMEM16A mutant V599A (Mus musculus, UniProt Q8BHY3, V599A)
T1 construct: expressed in transfected cells; host or cells: HEK293T
T1 sequence (Q8BHY3 1-960 V599A): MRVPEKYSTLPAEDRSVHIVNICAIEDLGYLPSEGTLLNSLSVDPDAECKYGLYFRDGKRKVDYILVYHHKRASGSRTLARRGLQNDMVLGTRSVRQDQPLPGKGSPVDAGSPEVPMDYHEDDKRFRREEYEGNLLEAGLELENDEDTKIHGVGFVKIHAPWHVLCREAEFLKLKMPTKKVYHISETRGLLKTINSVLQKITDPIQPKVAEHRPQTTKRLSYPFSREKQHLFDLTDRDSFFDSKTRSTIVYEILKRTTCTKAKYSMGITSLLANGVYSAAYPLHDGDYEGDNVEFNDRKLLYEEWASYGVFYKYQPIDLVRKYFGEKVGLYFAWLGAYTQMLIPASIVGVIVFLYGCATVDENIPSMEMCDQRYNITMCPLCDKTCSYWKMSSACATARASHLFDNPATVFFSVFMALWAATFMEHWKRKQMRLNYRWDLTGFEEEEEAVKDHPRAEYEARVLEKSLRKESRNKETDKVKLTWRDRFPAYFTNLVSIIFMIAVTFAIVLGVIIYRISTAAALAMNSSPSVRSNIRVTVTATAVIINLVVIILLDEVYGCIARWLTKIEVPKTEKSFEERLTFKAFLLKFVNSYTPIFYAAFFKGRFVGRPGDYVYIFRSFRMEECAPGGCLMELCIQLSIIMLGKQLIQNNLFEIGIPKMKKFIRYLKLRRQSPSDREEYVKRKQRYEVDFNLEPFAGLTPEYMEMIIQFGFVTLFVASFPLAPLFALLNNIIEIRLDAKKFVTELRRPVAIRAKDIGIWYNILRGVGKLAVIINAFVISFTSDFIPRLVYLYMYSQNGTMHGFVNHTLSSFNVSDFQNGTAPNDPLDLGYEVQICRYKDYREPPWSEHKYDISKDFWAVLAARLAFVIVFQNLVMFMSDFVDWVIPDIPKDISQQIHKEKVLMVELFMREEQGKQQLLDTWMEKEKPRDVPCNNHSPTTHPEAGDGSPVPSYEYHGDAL
Test: Inside-out patch recording of 1PBC block, mutant V599A
Format: cell-based
Details: for remaining activity at 3 µM: 1PBC conc 3; for remaining activity at 3 µM / remaining activity at 10 µM / remaining activity at 30 µM / remaining activity at 100 µM: read-out: relative current in 1PBC (avr); for remaining activity at 10 µM: 1PBC conc 10; for remaining activity at 30 µM: 1PBC conc 30; for remaining activity at 100 µM: 1PBC conc 100
Method: HEK293T cells (ATCC CRL-1573) were maintained in Dulbecco’s modified Eagle’s medium (DMEM; Sigma-Aldrich) supplemented with 10 U ml^−1 penicillin, 0.1 mg ml^−1 streptomycin (Sigma-Aldrich), 2 mM L-glutamine (Sigma-Aldrich), and 10% FBS (Sigma-Aldrich) in a humidified atmosphere containing 5% CO2 at 37 °C. HEK293S GnTI^− cells (ATCC CRL-3022) were maintained in HyClone HyCell TransFx-H medium (GE Healthcare) supplemented with 10 U ml^−1 penicillin, 0.1 mg ml^−1 streptomycin, 4 mM L-glutamine, 0.15% poloxamer 188 (Sigma-Aldrich), and 1% FBS in an atmosphere containing 5% CO2 at 185 rpm at 37 °C. The ac splice variant of mouse TMEM16A (UniProt ID: Q8BHY3), mouse TMEM16B (UniProt ID: Q8CFW1), or mouse TMEM16F (UniProt ID: Q6P9J9) bearing a 3C cleavage site, a Venus YFP, a Myc tag, and a Streptavidin-binding peptide (SBP) downstream of the open reading frame in a modified pcDNA3.1 vector (Invitrogen) were used as described previously[21],[31]. Mutations were introduced using a modified QuikChange method[58] and were verified by sequencing.
HEK293T cells were transfected with 3–4 μg DNA per 6 cm Petri dish using the calcium phosphate co-precipitation method and were used within 24–96 h after transfection. Recordings were performed on inside-out patches excised from HEK293T cells expressing the construct of interest. Patch pipettes were pulled from borosilicate glass capillaries (O.D. 1.5 mm, I.D. 0.86 mm, Sutter Instrument) and were fire-polished with a microforge (Narishige) before use. Pipette resistance was typically 3–8 MΩ when filled with the recording solutions detailed below. Seal resistance was typically 4 GΩ or higher. Voltage-clamp recordings were made using Axopatch 200B, Digidata 1550, and Clampex 10.7 (Molecular Devices). Analog signals were filtered with the in-built 4-pole Bessel filter at 10 kHz and were digitized at 20 kHz. Solution exchange was achieved using a gravity-fed system through a theta glass pipette mounted on an ultra-fast piezo-driven stepper (Siskiyou). […] All recordings were performed at 20 °C.
A symmetrical ionic condition was used throughout. Stock solution with Ca^2+-EGTA contained 150 mM NaCl, 5.99 mM Ca(OH)2, 5 mM EGTA, and 10 mM HEPES at pH 7.40. Stock solution with EGTA contained 150 mM NaCl, 5 mM EGTA, and 10 mM HEPES at pH 7.40. Free Ca^2+ concentrations were adjusted by mixing the stock solutions at the required ratios calculated using the WEBMAXC program (http://web.stanford.edu/~cpatton/webmaxcS.htm). Patch pipettes were filled with the stock solution with Ca^2+-EGTA, which has a free Ca^2+ concentration of 1 mM. 1PBC (ChemBridge) stock was reconstituted in anhydrous DMSO (Sigma-Aldrich) at 100 mM and stored at −20 °C. Working solutions with 1PBC were prepared by serial dilution. Unless otherwise stated, experiments were performed at a saturating Ca^2+ concentration as shown in Supplementary Table 1 and the primary data were corrected for current rundown as described previously[21],[25].
Concentration-response relations, obtained from the ratio of the I-V plots before and after the application of the blocker, were fitted to the Hill equation,1 I/Imax=1/1+IC50/[blocker]^h where I/Imax is the normalized current responses, IC50 defines the concentration at which inhibition is at its half-maximum, and h is the Hill coefficient.

Compound: N#Cc1c(C(F)(F)F)cc(O)n2c1nc1ccccc12 [1PBC]
- IC50 (-20 mV, 15 µM Ca2+): 79.2 µM
- remaining activity at 3 µM (-20 mV): 93.7%
- remaining activity at 10 µM (-20 mV): 88.9%
- remaining activity at 30 µM (-20 mV): 74.6%
- remaining activity at 100 µM (-20 mV): 42.8%
- IC50 (-40 mV, 15 µM Ca2+): 87.5 µM
- remaining activity at 3 µM (-40 mV): 93.7%
- remaining activity at 10 µM (-40 mV): 89.2%
- remaining activity at 30 µM (-40 mV): 76.8%
- remaining activity at 100 µM (-40 mV): 45.5%
- IC50 (-60 mV, 15 µM Ca2+): 97.2 µM
- remaining activity at 3 µM (-60 mV): 94.2%
- remaining activity at 10 µM (-60 mV): 90.8%
- remaining activity at 30 µM (-60 mV): 77.7%
- remaining activity at 100 µM (-60 mV): 48.6%
- IC50 (-80 mV, 15 µM Ca2+): 104 µM
- remaining activity at 3 µM (-80 mV): 94.9%
- remaining activity at 10 µM (-80 mV): 91.7%
- remaining activity at 30 µM (-80 mV): 78.1%
- remaining activity at 100 µM (-80 mV): 50.8%
- IC50 (-100 mV, 15 µM Ca2+): 109 µM
- remaining activity at 3 µM (-100 mV): 94.9%
- remaining activity at 10 µM (-100 mV): 91.7%
- remaining activity at 30 µM (-100 mV): 78.5%
- remaining activity at 100 µM (-100 mV): 52.3%
- IC50 (-120 mV, 15 µM Ca2+): 115 µM
- remaining activity at 3 µM (-120 mV): 95.9%
- remaining activity at 10 µM (-120 mV): 93.5%
- remaining activity at 30 µM (-120 mV): 79.4%
- remaining activity at 100 µM (-120 mV): 53.3%
- IC50 (-140 mV, 15 µM Ca2+): 119 µM
- remaining activity at 3 µM (-140 mV): 96%
- remaining activity at 10 µM (-140 mV): 93.2%
- remaining activity at 30 µM (-140 mV): 79.3%
- remaining activity at 100 µM (-140 mV): 54.7%
- IC50 (V599A, V 0 mV): 69.5 µM
- IC50 (V599A, V 20 mV): 61.3 µM
- IC50 (V599A, V 40 mV): 55.5 µM
- IC50 (V599A, V 60 mV): 48.9 µM
- IC50 (V599A, V 80 mV): 45.8 µM
- IC50 (V599A, V 100 mV): 45 µM
- IC50 (V599A, V 120 mV): 45.1 µM
- IC50 (V599A, V 140 mV): 48.5 µM
- IC50 (V599A, V -20 mV): 79.2 µM
- IC50 (V599A, V -40 mV): 87.5 µM
- IC50 (V599A, V -60 mV): 97.2 µM
- IC50 (V599A, V -80 mV): 104 µM
- IC50 (V599A, V -100 mV): 109 µM
- IC50 (V599A, V -120 mV): 115 µM
- IC50 (V599A, V -140 mV): 119 µM
